Measurements: patent US8426437B2, “Pyrroloquinoline derivatives and their use as protein kinases inhibitors” (Pierre Fabre Medicament, priority 2005, dated 2013)
Counter-ions that a name gives are not always drawn.

Biological target: T1, RET (Homo sapiens, UniProt P07949)
T1 construct: purchased Upstate 14-570MG
Assay: Inhibition of RET kinase activity, recombinant RET method (Kinase-Glo)
Assay type: biochemical
Conditions: RET 2 μg/ml, poly-EY4 substrate, 20 μM ATP, two hours at 30° C.
How it was run: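 Recombinant RET at 2 μg/ml in 20 mM MOPS/NaOH pH 7.0, 1 mM EDTA, 5% glycerol, 0.01% Brij35, 0.1% 2-mercaptoethanol, 1 mg/ml BSA; compounds 10 nM–30 μM final.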

T1 sequence (P07949 29-1114): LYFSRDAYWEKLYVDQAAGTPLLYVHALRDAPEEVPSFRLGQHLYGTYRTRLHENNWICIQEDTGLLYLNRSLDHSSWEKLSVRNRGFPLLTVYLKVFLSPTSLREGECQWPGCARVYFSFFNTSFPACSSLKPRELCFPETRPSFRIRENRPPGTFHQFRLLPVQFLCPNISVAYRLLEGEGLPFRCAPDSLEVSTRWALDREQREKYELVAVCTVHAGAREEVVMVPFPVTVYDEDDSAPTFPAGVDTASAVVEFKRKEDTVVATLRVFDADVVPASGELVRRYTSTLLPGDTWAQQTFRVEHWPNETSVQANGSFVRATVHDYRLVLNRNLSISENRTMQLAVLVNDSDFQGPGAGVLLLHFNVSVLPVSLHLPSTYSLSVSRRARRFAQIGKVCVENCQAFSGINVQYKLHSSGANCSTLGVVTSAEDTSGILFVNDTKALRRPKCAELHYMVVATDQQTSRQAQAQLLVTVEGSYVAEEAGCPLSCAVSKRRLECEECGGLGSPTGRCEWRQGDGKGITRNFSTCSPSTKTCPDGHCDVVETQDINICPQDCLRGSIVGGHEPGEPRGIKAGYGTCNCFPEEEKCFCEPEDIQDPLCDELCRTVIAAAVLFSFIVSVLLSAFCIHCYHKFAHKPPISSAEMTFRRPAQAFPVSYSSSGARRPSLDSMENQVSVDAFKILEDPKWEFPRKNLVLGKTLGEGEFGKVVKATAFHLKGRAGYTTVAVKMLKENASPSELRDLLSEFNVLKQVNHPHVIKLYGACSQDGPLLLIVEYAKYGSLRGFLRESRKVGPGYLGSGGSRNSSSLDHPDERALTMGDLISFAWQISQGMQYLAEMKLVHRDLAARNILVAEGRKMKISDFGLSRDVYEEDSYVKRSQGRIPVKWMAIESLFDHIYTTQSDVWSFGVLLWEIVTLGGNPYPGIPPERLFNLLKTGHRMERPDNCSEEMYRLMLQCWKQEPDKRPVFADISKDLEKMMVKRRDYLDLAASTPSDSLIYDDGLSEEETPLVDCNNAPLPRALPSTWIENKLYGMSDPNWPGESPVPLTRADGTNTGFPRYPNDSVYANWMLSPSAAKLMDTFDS

| SMILES | IC50 [µM] |
| --- | --- |
| CCOC(=O)c1c[nH]c2c(=O)[nH]c3ccc(-c4ccccc4)cc3c12 [Compound 228, 4-Oxo-8-phenyl-4,5-dihydro-3H-pyrrolo[2,3-c]quinoline-1-ethyl carboxylate] | 1 to 10 |
| CCOC(=O)c1c[nH]c2c(=O)[nH]c3ccc(-c4ccccc4NC(=O)OC(C)(C)C)cc3c12 [Compound 230, 8-(2-tert-Butoxycarbonylaminophenyl)-4-oxo-4,5-dihydro-3H-pyrrolo[2,3-c]quinoline-1-ethyl carboxylate] | 10 to 100 |
| CCOC(=O)c1c[nH]c2c(=O)[nH]c3ccc(-c4csc(CSc5ccccc5)n4)cc3c12 [Compound 276, 4-Oxo-8-(2-phenylsulfanylmethyl-thiazol-4-yl)-4,5-dihydro-3H-pyrrolo[2,3-c]quinoline-1-ethyl carboxylate] | 0.1 to 1 |
| CCOC(=O)c1c[nH]c2c(=O)[nH]c3ccc(Sc4ccc(NC(C)=O)cc4)cc3c12 [Compound 223, 8-(4-Acetylaminophenylsulfanyl)-4-oxo-4,5-dihydro-3H-pyrrolo[2,3-c]quinoline-1-ethyl carboxylate] | 0.1 to 1 |
| CCOC(=O)c1c[nH]c2c(=O)[nH]c3ccc(C#CCN4CCOCC4)cc3c12 [Compound 205, 8-(3-Morpholin-4-yl-prop-1-ynyl)-4-oxo-4,5-dihydro-3H-pyrrolo[2,3-c]quinoline-1-ethyl carboxylate] | 0.1 to 1 |
| CCOC(=O)c1c[nH]c2c(=O)[nH]c3ccc(C(=O)c4ccccc4)cc3c12 [Compound 102, 8-Benzoyl-4-oxo-4,5-dihydro-3H-pyrrolo[2,3-c]quinoline-1-ethyl carboxylate] | 1 to 10 |
| CCCOC(=O)c1c[nH]c2c(=O)[nH]c3ccc(S(=O)(=O)N(C)CC(=O)O)cc3c12 [Compound 182, 8-(Carboxymethyl-methyl-sulfamoyl)-4-oxo-4,5-dihydro-3H-pyrrolo[2,3-c]quinoline-1-propyl carboxylate] | 1 to 10 |
| CCOC(=O)c1c[nH]c2c(=O)[nH]c3ccc(-c4cc(S(C)(=O)=O)ccc4N)cc3c12 [Compound 251, 8-(2-Amino-5-methanesulfonyl-phenyl)-4-oxo-4,5-dihydro-3H-pyrrolo[2,3-c]quinoline-1-ethyl carboxylate] | 0.1 to 1 |
| CCCN(C)C(=O)c1c[nH]c2c(=O)[nH]c3ccc(S(=O)(=O)N(C)C)cc3c12 [Compound 110, N-Methyl-N-propyl-8-dimethylsulfamoyl-4-oxo-4,5-dihydro-3H-pyrrolo[2,3-c]quinoline-1-carboxamide] | 10 to 100 |
| CNC(=O)c1c[nH]c2c(=O)[nH]c3ccccc3c12 [Compound 88, N-(Methyl)-4-oxo-4,5-dihydro-3H-pyrrolo[2,3-c]quinoline-1-carboxamide] | 10 to 100 |
| CCOC(=O)c1c[nH]c2c(=O)[nH]c3ccc(S(=O)(=O)N4CCOCC4)cc3c12 [Compound 28, 8-(Morpholine-4-sulfonyl)-4-oxo-4,5-dihydro-3H-pyrrolo[2,3-c]quinoline-1-ethyl carboxylate] | 0.1 to 1 |
| O=C(NCc1ccncc1)c1c[nH]c2c(=O)[nH]c3ccccc3c12 [Compound 86, N-(Pyridin-4-ylmethyl)-4-oxo-4,5-dihydro-3H-pyrrolo[2,3-c]quinoline-1-carboxamide] | 10 to 100 |
| CC(C)COC(=O)c1c[nH]c2c(=O)[nH]c3ccc(-c4cccc(S(C)(=O)=O)c4)cc3c12 [Compound 255, 8-(3-Methanesulfonyl-phenyl)-4-oxo-4,5-dihydro-3H-pyrrolo[2,3-c]quinoline-1-isobutyl carboxylate] | 1 to 10 |
| C#CCN(C[C@@H]1CCCN1C)S(=O)(=O)c1ccc2[nH]c(=O)c3[nH]cc(C(=O)OCCC)c3c2c1 [Compound 151, (S)-8-[(1-Methyl-pyrrolidin-2-ylmethyl)-prop-2-ynyl-sulfamoyl]-4-oxo-4,5-dihydro-3H-pyrrolo[2,3-c]quinoline-1-propyl carboxylate] | 0.1 to 1 |
| CCCOC(=O)c1c[nH]c2c(=O)[nH]c3ccc(S(=O)(=O)NC4CC4)cc3c12 [Compound 124, 8-Cyclopropylsulfamoyl-4-oxo-4,5-dihydro-3H-pyrrolo[2,3-c]quinoline-1-propyl carboxylate] | 0.1 to 1 |
| CCOC(=O)c1c[nH]c2c(=O)[nH]c3ccc(S(=O)(=O)N(C)CCc4ccccc4)cc3c12 [Compound 25, 8-(Methyl-phenethyl-sulfamoyl)-4-oxo-4,5-dihydro-3H-pyrrolo[2,3-c]quinoline-1-ethyl carboxylate] | 1 to 10 |
| CCOC(=O)c1c[nH]c2c(=O)[nH]c3c([N+](=O)[O-])cccc3c12 [Compound 67, 6-Nitro-4-oxo-4,5-dihydro-3H-pyrrolo[2,3-c]quinoline-1-ethyl carboxylate] | 10 to 100 |
| CCCOC(=O)c1c[nH]c2c(=O)[nH]c3ccc(S(=O)(=O)N(C[C@H]4CCCN4)C4CC4)cc3c12 [Compound 148, (R)-8-(Cyclopropyl-pyrrolidin-2-ylmethyl-sulfamoyl)-4-oxo-4,5-dihydro-3H-pyrrolo[2,3-c]quinoline-1-propyl carboxylate hydrochloride] | 0.1 to 1 |

| SMILES | IC50 [µM] |
| --- | --- |
| CCOC(=O)c1c[nH]c2c(=O)[nH]c3ccc(S(=O)(=O)Nc4ccc(O)cc4)cc3c12 [Compound 98, 8-(4-Hydroxy-phenylsulfamoyl)-4-oxo-4,5-dihydro-3H-pyrrolo[2,3-c]quinoline-1-ethyl carboxylate] | < 0.1 |
| CN1CCC(NS(=O)(=O)c2ccc3[nH]c(=O)c4[nH]cc(C(=O)OC5CCCC5)c4c3c2)CC1 [Compound 119, 8-(q-Methyl-piperidin-4-ylsulfamoyl)-4-oxo-4,5-dihydro-3H-pyrrolo[2,3-c]quinoline-1-cyclopentyl carboxylate] | 0.1 to 1 |
| CCOC(=O)c1c[nH]c2c(=O)[nH]c3ccc(-c4cccnc4)cc3c12 [Compound 258, 4-Oxo-8-pyridin-3-yl-4,5-dihydro-3H-pyrrolo[2,3-c]quinoline-1-ethyl carboxylate] | 1 to 10 |
| CCOC(=O)c1c[nH]c2c(=O)[nH]c3ccc(NS(C)(=O)=O)cc3c12 [Compound 38, 8-Methanesulfonylamino-4-oxo-4,5-dihydro-3H-pyrrolo[2,3-c]quinoline-1-ethyl carboxylate] | 0.1 to 1 |
| CCOC(=O)c1c[nH]c2c(=O)[nH]c3ccc(S(=O)(=O)Nc4ccc(F)cc4C)cc3c12 [Compound 17, 8-(4-Fluoro-2-methyl-phenylsulfamoyl)-4-oxo-4,5-dihydro-3H-pyrrolo[2,3-c]quinoline-1-ethyl carboxylate] | < 0.1 |
| CCOC(=O)c1c[nH]c2c(=O)[nH]c3ccc(Sc4cccc(NC(C)=O)c4)cc3c12 [Compound 225, 8-(3-Acetylaminophenylsulfanyl)-4-oxo-4,5-dihydro-3H-pyrrolo[2,3-c]quinoline-1-ethyl carboxylate] | 0.1 to 1 |
| CC(C)COC(=O)c1c[nH]c2c(=O)[nH]c3ccc(I)cc3c12 [Compound 212, 8-Iodo-4-oxo-4,5-dihydro-3H-pyrrolo[2,3-c]quinoline-1-isobutyl carboxylate] | 1 to 10 |
| CN(c1ccc(F)cc1)S(=O)(=O)c1ccc2[nH]c(=O)c3[nH]cc(C(=O)OCCO)c3c2c1 [Compound 104, 8-[(4-Fluorophenyl)-methyl-sulfamoyl]-4-oxo-4,5-dihydro-3H-pyrrolo[2,3-c]quinoline-1-2-hydroxyethyl carboxylate] | 1 to 10 |
| CCOC(=O)c1c[nH]c2c(=O)[nH]c3ccc(F)cc3c12 [Compound 99, 8-Fluoro-4-oxo-4,5-dihydro-3H-pyrrolo[2,3-c]quinoline-1-ethyl carboxylate] | 10 to 100 |
| CN(CC(N)=O)S(=O)(=O)c1ccc2[nH]c(=O)c3[nH]cc(C(=O)O)c3c2c1 [Compound 178, 8-(Carbamoylmethyl-methyl-sulfamoyl)-4-oxo-4,5-dihydro-3H-pyrrolo[2,3-c]quinoline-1-carboxylic acid] | 1 to 10 |
| CCOC(=O)c1c[nH]c2c(=O)[nH]c3ccc(-c4cccc(C#N)c4)cc3c12 [Compound 239, 8-(3-Cyano-phenyl)-4-oxo-4,5-dihydro-3H-pyrrolo[2,3-c]quinoline-1-ethyl carboxylate] | 0.1 to 1 |
| CCOC(=O)c1c[nH]c2c(=O)[nH]c3cc(OC)c(OC)cc3c12 [Compound 72, 7,8-Dimethoxy-4-oxo-4,5-dihydro-3H-pyrrolo[2,3-c]quinoline-1-ethyl carboxylate] | 1 to 10 |
| CCCOC(=O)c1c[nH]c2c(=O)[nH]c3ccc(S(=O)(=O)N4CCC(N(C)C(=O)OC(C)(C)C)C4)cc3c12 (stereo not drawn) [Compound 169, 8-[3-(tert-Butoxycarbonyl-methyl-amino)-pyrrolidine-1-sulfonyl]-4-oxo-4,5-dihydro-3H-pyrrolo[2,3-c]quinoline-1-propyl carboxylate] | 1 to 10 |
| CCOC(=O)c1c[nH]c2c(=O)[nH]c3ccc(S(=O)(=O)N(C)c4ccc(F)cc4)cc3c12 [Compound 13, 8-[(4-Fluorophenyl)-N-methyl-sulfamoyl)-4-oxo-4,5-dihydro-3H-pyrrolo[2,3-c]quinoline-1-ethyl carboxylate] | < 0.1 |
| CCOC(=O)c1c[nH]c2c(=O)[nH]c3ccc(-c4csc(Nc5ccccc5Cl)n4)cc3c12 [Compound 272, 8-[2-(2-Chlorophenylamino)-thiazol-4-yl]-4-oxo-4,5-dihydro-3H-pyrrolo[2,3-c]quinoline-1-ethyl carboxylate] | 1 to 10 |
| CCOC(=O)c1c[nH]c2c(=O)[nH]c3cc(Cl)c(-c4cccc(S(C)(=O)=O)c4)cc3c12 [Compound 257, 7-Chloro-8-(3-methanesulfonyl-phenyl)-4-oxo-4,5-dihydro-3H-pyrrolo[2,3-c]quinoline-1-ethyl carboxylate] | 0.1 to 1 |
| CCOC(=O)c1c[nH]c2c(=O)[nH]c3ccc(-c4ccc(OC)cc4)cc3c12 [Compound 246, 8-(4-Methoxy-phenyl)-4-oxo-4,5-dihydro-3H-pyrrolo[2,3-c]quinoline-1-ethyl carboxylate] | 1 to 10 |
| CCOC(=O)c1c[nH]c2c(=O)[nH]c3ccc(NS(=O)(=O)Cc4ccccc4)cc3c12 [Compound 39, 4-Oxo-8-phenylmethanesulfonylamino-4,5-dihydro-3H-pyrrolo[2,3-c]quinoline-1-ethyl carboxylate] | 0.1 to 1 |
